Results from patent US20090311217A1, “3-SUBSTITUTED-1H-INDOLE COMPOUNDS, THEIR USE AS MTOR KINASE AND PI3 KINASE INHIBITORS, AND THEIR SYNTHESES” (priority 2008, published 2009).

What was measured:
Assay type in all cases: biochemical
human TOR = target: T1, human TOR (Homo sapiens, UniProt P42345); assay: mTOR enzyme assay (DELFIA, His6-S6K substrate); details: read-out: mTOR Kinase Avg. IC50
T1 construct: FLAG

PI3K-alpha = PI3K-alpha (Homo sapiens, UniProt P42336); assay: PI3K-alpha fluorescence polarization assay; details: read-out: PI3Kα Avg. IC50
PI3K-gamma = PI3K-gamma (Homo sapiens, UniProt P48736); assay: PI3K-gamma fluorescence polarization assay; details: PI3Kγ Avg. IC50
How it was run: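 Reactions used 5 ng enzyme with 2.5 μM diC8-PI(4,5)P2 and 25 μM ATP in 5 mM HEPES pH 7, 2.5 mM MgCl2, run 1 h at 25° C. After an EDTA quench (10 mM), 100 nM GST-GRP1 PH domain and 5 nM BODIPY-TMR-IP4 were added and fluorescence polarization was read.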

Sequence of PI3K-gamma (P48736 whole entry, species assumed, the tested form may be a part): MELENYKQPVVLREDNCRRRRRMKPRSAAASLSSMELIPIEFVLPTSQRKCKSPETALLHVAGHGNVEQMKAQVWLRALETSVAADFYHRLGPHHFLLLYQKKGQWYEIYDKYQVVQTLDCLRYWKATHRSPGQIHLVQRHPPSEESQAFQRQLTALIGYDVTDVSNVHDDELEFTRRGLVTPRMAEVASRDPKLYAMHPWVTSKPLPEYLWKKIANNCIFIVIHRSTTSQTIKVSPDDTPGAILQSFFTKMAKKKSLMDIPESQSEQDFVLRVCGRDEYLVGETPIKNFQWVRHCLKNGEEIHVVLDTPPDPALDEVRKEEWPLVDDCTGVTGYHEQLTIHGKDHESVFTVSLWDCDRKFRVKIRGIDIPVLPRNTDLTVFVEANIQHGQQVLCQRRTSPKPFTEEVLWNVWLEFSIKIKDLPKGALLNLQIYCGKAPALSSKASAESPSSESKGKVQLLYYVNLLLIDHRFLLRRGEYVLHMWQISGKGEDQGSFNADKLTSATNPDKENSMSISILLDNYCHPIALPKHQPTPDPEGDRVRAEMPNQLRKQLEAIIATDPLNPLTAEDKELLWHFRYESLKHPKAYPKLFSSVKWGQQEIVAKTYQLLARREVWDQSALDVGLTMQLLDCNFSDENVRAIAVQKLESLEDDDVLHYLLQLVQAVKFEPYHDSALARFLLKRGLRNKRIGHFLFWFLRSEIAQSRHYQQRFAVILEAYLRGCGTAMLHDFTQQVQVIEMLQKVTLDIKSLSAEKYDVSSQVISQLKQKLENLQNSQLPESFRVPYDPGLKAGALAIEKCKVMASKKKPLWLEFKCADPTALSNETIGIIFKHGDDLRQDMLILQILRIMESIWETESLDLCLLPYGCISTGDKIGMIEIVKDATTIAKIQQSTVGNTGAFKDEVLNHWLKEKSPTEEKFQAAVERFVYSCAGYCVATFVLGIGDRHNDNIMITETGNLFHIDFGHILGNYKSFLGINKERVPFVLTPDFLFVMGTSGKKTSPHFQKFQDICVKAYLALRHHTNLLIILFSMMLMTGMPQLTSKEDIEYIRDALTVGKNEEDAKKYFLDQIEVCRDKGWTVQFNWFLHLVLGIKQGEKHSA
Sequence of PI3K-alpha (P42336 whole entry, species assumed): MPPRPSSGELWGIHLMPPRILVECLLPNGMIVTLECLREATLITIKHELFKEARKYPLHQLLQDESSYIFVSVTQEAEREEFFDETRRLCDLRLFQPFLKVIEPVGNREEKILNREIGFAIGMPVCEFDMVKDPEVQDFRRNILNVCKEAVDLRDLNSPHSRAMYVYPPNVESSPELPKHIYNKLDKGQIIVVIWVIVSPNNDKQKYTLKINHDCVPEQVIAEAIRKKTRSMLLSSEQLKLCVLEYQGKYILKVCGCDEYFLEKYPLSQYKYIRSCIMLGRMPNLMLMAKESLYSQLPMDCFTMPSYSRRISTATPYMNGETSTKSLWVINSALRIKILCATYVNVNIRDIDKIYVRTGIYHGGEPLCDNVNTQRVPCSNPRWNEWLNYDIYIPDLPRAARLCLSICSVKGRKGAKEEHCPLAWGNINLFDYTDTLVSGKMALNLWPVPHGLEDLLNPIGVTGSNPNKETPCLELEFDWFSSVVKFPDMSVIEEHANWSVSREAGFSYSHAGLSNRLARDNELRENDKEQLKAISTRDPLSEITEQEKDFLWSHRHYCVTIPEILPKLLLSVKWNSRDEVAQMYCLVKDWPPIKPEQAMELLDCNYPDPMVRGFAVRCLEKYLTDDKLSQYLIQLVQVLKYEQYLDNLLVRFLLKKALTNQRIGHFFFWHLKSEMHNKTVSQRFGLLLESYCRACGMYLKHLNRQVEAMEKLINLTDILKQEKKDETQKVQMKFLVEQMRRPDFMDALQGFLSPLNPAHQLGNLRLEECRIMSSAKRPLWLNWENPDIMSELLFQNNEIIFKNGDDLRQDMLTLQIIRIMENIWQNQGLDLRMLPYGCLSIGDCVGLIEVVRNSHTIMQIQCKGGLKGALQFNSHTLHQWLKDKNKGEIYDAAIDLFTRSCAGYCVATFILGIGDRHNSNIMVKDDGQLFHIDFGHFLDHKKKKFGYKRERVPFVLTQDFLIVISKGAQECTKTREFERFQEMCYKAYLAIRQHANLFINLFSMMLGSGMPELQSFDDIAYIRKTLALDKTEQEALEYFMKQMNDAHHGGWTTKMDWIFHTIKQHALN
Sequence of PI3K-alpha (P27986 whole entry partner, species assumed): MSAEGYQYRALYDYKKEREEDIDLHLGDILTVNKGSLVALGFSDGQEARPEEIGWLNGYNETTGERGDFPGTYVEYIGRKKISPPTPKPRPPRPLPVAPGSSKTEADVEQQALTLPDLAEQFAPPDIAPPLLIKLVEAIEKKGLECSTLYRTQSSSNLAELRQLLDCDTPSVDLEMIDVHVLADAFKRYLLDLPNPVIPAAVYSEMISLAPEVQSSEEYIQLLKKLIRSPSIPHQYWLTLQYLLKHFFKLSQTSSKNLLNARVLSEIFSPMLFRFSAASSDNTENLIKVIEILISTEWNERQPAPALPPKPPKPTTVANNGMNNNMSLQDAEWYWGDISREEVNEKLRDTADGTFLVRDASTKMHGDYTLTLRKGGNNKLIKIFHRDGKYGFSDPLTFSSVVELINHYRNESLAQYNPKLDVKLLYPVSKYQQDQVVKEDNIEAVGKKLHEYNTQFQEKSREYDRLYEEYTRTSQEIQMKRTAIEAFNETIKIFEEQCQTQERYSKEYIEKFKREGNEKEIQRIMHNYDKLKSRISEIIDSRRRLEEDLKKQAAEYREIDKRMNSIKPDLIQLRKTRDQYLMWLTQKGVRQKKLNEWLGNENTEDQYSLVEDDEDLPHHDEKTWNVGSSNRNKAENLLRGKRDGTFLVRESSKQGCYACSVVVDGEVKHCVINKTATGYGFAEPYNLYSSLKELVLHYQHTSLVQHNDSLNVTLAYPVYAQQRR

SMILES | IC50 (human TOR) | IC50 (PI3K-alpha) | IC50 (PI3K-gamma)
COc1ccc2c(c1)c(/C=C1\Oc3cc(O)cc(O)c3C1=O)c(C1CC1)n2CCN1CCC(O)CC1 [Example 315, (2Z)-2-({2-Cyclopropyl-1-[2-(4-hydroxypiperidin-1-yl)ethyl]-5-methoxy-1H-indol-3-yl}methylene)-4,6-dihydroxy-1-benzofuran-3(2H)-one] | 4.2 nM | 3 nM | 26.5 nM
Cn1cc(/C=C2\Oc3cc(O)cc(O)c3C2=O)c2c(-c3cccc(O)c3)cccc21 [Example 390, (2Z)-4,6-Dihydroxy-2-{[4-(3-hydroxyphenyl)-1-methyl-1H-indol-3-yl]methylene}-1-benzofuran-3(2H)-one] | 90 nM | 1120 nM | 2040 nM
CCn1c(C)c(/C=C2\Oc3ccc(NC(=O)Nc4ccc(NC(=O)CCN(C)C)cc4)cc3C2=O)c2cc(OC)ccc21 [Compound 676, N-{4-[({(2Z)-2-[(1-ethyl-5-methoxy-2-methyl-1H-indol-3-yl)methylidene]-3-oxo-2,3-dihydro-1-benzofuran-5-yl}carbamoyl)amino]phenyl}-N3,N3-dimethyl-b-alaninamide] | 7 nM | 0.3 nM | 3.25 nM
Cn1cc(/C=C2\Oc3cc(O)cc(O)c3C2=O)c2c(-c3ccc(N4CCOCC4)nc3)cccc21 [Example 386, (2Z)-4,6-Dihydroxy-2-{[1-methyl-4-(6-morpholin-4-ylpyridin-3-yl)-1H-indol-3-yl]methylene}-1-benzofuran-3(2H)-one] | 69.5 nM | 1920 nM | 5780 nM
Cn1cc(/C=C2\Oc3cc(O)cc(O)c3C2=O)c2c(-c3ccc([N+](=O)[O-])cc3)cccc21 [Example 420, (2Z)-4,6-Dihydroxy-2-{[1-methyl-4-(4-nitrophenyl)-1H-indol-3-yl]methylene}-1-benzofuran-3(2H)-one] | 31.5 nM | 708 nM | > 10000 nM
CCn1c(C)c(/C=C2\Oc3ccc(NC(=O)Nc4ccc(CCCCN(C)C)cc4)cc3C2=O)c2cc(OC)ccc21 [Compound 663, 1-{4-[4-(dimethylamino)butyl]phenyl}-3-{(2Z)-2-[(1-ethyl-5-methoxy-2-methyl-1H-indol-3-yl)methylidene]-3-oxo-2,3-dihydro-1-benzofuran-5-yl}urea] | 710 nM | 5.73 nM | 42.3 nM
COc1ccc2c(c1)c(/C=C1\Oc3cc(O)cc(C)c3C1=O)c(C1CC1)n2CCN1CCN(C)CC1 [Example 464, (2Z)-2-({2-Cyclopropyl-5-methoxy-1-[2-(4-methylpiperazin-1-yl)ethyl]-1H-indol-3-yl}methylene)-6-hydroxy-4-methyl-1-benzofuran-3(2H)-one] | 37.5 nM | 13.5 nM | 1450 nM
Cc1ccc2[nH]cc(/C=C3\Oc4c(ccc(O)c4O)C3=O)c2c1 [Example 65, (2Z)-6,7-dihydroxy-2-[(5-methyl-1H-indol-3-yl)methylene]-1-benzofuran-3(2H)-one] | > 20000 nM | 384 nM | 3770 nM
CN1CCN(CCn2cc(/C=C3\Oc4cc(O)cc(O)c4C3=O)c3c(-c4ccc(C(N)=O)cc4)cccc32)CC1 [Example 425, 4-{3-[(Z)-(4,6-Dihydroxy-3-oxo-1-benzofuran-2(3H)-ylidene)methyl]-1-[2-(4-methylpiperazin-1-yl)ethyl]-1H-indol-4-yl}benzamide] | > 20000 nM | 5040 nM | 8660 nM
Cn1cc(C=C2Oc3cc(O)cc(O)c3C2=O)c2c(C#N)cccc21 [Example 188, 3-[(4,6-dihydroxy-3-oxo-1-benzofuran-2(3H)-ylidene)methyl]-1-methyl-1H-indole-4-carbonitrile] | 260 nM | 1800 nM | > 10000 nM
CNC(=O)Nc1ccc2c(c1)C(=O)/C(=C/c1c(-c3c(C)nn(C)c3C)n(CCNCCN(C)C)c3ccc(OC)cc13)O2 [Compound 664, 1-[(2Z)-2-{[1-(2-{[2-(dimethylamino)ethyl]amino}ethyl)-5-methoxy-2-(1,3,5-trimethyl-1H-pyrazol-4-yl)-1H-indol-3-yl]methylidene}-3-oxo-2,3-dihydro-1-benzofuran-5-yl]-3-methylurea] | 18 nM | 2.05 nM | 63 nM
Cn1cc(C=C2Oc3cc(O)cc(O)c3C2=O)c2cccc([N+](=O)[O-])c21 [Example 229, 4,6-dihydroxy-2-[(1-methyl-7-nitro-1H-indol-3-yl)methylene]-1-benzofuran-3(2H)-one] | 8300 nM | 735 nM | > 10000 nM
COc1ccc2[nH]cc(/C=C3\Oc4ccc(NC(=O)Nc5ccc(C(=O)N6CCN(C)CC6)cc5)cc4C3=O)c2c1 [Compound 643, 1-{(2Z)-2-[(5-methoxy-1H-indol-3-yl)methylene]-3-oxo-2,3-dihydro-1-benzofuran-5-yl}-3-{4-[(4-methylpiperazin-1-yl)carbonyl]phenyl}urea] | > 4000 nM | 0.9 nM | 4 nM
CCc1cccc2c(C=C3Oc4cc(O)cc(O)c4C3=O)cn(CCCC#N)c12 [Example 232, 4-{3-[(4,6-dihydroxy-3-oxo-1-benzofuran-2(3H)-ylidene)methyl]-7-ethyl-1H-indol-1-yl}butanenitrile] | > 20000 nM | 610 nM | 6000 nM
COc1ccc2c(c1)c(/C=C1\Oc3cc(O)cc(O)c3C1=O)c(C1CCCCC1)n2CCN1CCN(C)CC1 [Example 447, (2Z)-2-({2-Cyclohexyl-5-methoxy-1-[2-(4-methylpiperazin-1-yl)ethyl]-1H-indol-3-yl}methylene)-4,6-dihydroxy-1-benzofuran-3(2H)-one] | 1.3 nM | 1.7 nM | 105 nM
Cn1c(-c2ccccc2)c(/C=C2\Oc3cc(O)cc(O)c3C2=O)c2c(C#N)cccc21 [Example 437, 3-[(Z)-(4,6-dihydroxy-3-oxo-1-benzofuran-2(3H)-ylidene)methyl]-1-methyl-2-phenyl-1H-indole-4-carbonitrile] | < 23 nM | 1600 nM | > 10000 nM
COc1ccc2c(c1)c(/C=C1\Oc3cc(NC(=O)OC(C)(C)C)ccc3C1=O)cn2CCCN(C)C [Example 417, tert-butyl (2Z)-[2-({1-[3-(dimethylamino)propyl]-5-methoxy-1H-indol-3-yl}methylene)-3-oxo-2,3-dihydro-1-benzofuran-6-yl]carbamate] | > 20000 nM | 4740 nM | 2100 nM
Cn1cc(/C=C2\Oc3cc(O)cc(O)c3C2=O)c2c(-c3ccsc3)cccc21 [Example 374, (2Z)-4,6-Dihydroxy-2-{[1-methyl-4-(3-thienyl)-1H-indol-3-yl]methylene}-1-benzofuran-3(2H)-one] | 110 nM | 2610 nM | 4200 nM
CNC(=O)c1ccc(-c2cccc3c2c(/C=C2\Oc4cc(O)cc(O)c4C2=O)cn3C)cc1 [Example 392, 4-{3-[(Z)-(4,6-dihydroxy-3-oxo-1-benzofuran-2(3H)-ylidene)methyl]-1-methyl-1H-indol-4-yl}-N-methylbenzamide] | 17 nM | 453 nM | > 7180 nM
Cn1c(-c2ccncc2)c(C=C2Oc3cc(O)cc(O)c3C2=O)c2ccccc21 [Example 190, 4,6-dihydroxy-2-[(1-methyl-2-pyridin-4-y1-1H-indol-3-yl)methylene]-1-benzofuran-3(2H)-one] | 120 nM | 2120 nM | 8540 nM
COc1ccc2c(c1)c(/C=C1\Oc3c(ccc(O)c3F)C1=O)c(C)n2CCN1CCN(C)CC1 [Example 457, (2Z)-7-Fluoro-6-hydroxy-2-({5-methoxy-2-methyl-1-[2-(4-methylpiperazin-1-yl)ethyl]-1H-indol-3-yl}methylene)-1-benzofuran-3(2H)-one] | > 20000 nM | 74 nM | 5050 nM
COc1ccc2c(c1)c(/C=C1\Oc3cc(NC(C)=O)ccc3C1=O)cn2CCCN(C)C [Example 407, N-(2Z)-[2-({1-[3-(Dimethylamino)propyl]-5-methoxy-1H-indol-3-yl}methylene)-3-oxo-2,3-dihydro-1-benzofuran-6-yl]acetamide] | > 20000 nM | > 10000 nM | > 10000 nM
CCn1cc(/C=C2\Oc3ccc(NC(=O)Nc4ccc(C(=O)N5CCN(C)CC5)cc4)cc3C2=O)c2cc(OC)ccc21 [Compound 642, 1-{(2Z)-2-[(1-ethyl-5-methoxy-1H-indol-3-yl)methylene]-3-oxo-2,3-dihydro-1-benzofuran-5-yl}-3-{4-[(4-methylpiperazin-1-yl)carbonyl]phenyl}urea] | 2600 nM | 0.95 nM | 8 nM
CNC(=O)Nc1ccc2c(c1)C(=O)/C(=C/c1c(-c3ccc(CN(C)C)cc3)[nH]c3ccc(OC)cc13)O2 [Compound 624, 1-{(2Z)-2-[(2-{4-[(dimethylamino)methyl]phenyl}-5-methoxy-1H-indol-3-yl)methylidene]-3-oxo-2,3-dihydro-1-benzofuran-5-yl}-3-methylurea] | 57 nM | 2.1 nM | 23 nM
N#CCCCn1c(-c2ccccc2)c(C=C2Oc3cc(O)cc(O)c3C2=O)c2ccccc21 [Example 155, 4-{3-[(4,6-dihydroxy-3-oxo-1-benzofuran-2(3H)-ylidene)methyl]-2-phenyl-1H-indol-1-yl}butanenitrile] | 80 nM | 516 nM | 5350 nM
COc1ccc2c(c1)c(/C=C1\Oc3ccc(NC(=O)Nc4ccc(C(=O)N5CCN(C)CC5)cc4)cc3C1=O)c(C)n2C [Compound 658, 1-{(2Z)-2-[(5-methoxy-1,2-dimethyl-1H-indol-3-yl)methylidene]-3-oxo-2,3-dihydro-1-benzofuran-5-yl}-3-{4-[(4-methylpiperazin-1-yl)carbonyl]phenyl}urea] | 2450 nM | 0.3 nM | 2.15 nM
